{"source": "patent US11524956B2", "about": "“Alkyne substituted quinazoline compound and methods of use” (Newgen Therapeutics, Inc., priority 2011, dated 2022)", "key": {"EGFR kinase": {"molecular_target": "EGFR kinase (Homo sapiens (Human), UniProt P00533)", "sequence (P00533 668-1210)": "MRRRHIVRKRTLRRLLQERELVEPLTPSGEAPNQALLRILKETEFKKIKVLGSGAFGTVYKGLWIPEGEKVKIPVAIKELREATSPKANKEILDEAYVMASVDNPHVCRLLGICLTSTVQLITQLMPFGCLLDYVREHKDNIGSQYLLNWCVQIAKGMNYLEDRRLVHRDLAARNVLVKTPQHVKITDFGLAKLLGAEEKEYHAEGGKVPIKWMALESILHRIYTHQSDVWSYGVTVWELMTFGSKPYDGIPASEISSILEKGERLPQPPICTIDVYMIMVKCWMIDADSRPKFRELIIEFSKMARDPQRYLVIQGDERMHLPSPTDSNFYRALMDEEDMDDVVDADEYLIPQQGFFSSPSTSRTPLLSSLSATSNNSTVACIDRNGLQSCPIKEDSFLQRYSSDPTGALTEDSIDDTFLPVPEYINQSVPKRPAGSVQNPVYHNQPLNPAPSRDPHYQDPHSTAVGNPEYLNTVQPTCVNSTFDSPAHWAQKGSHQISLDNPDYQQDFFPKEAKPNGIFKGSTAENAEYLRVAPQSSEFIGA", "test": "Kinase assay for EGFR (TR-FRET, LanthaScreen)", "format": "biochemical", "conditions": "read-out: Kinase inhibition IC50 (nM) EGFR", "method": "The extent to which the compounds of the present invention modulate EGFR kinase activity can be determined using time-resolved Fret (TR-FRET) assay (LanthaScreen® kinase activity assay, from InVitrogen). The assay employs EGFR kinase (PV3872, Invitrogen), Tb-Py20 antibody (PV3552, InVitrogen) and fluorescein-poly GT (PV3610, InVitrogen).\nThe assay is performed in a Black 384-well plate (available from Corning). EGFR kinase (is diluted in TR-FRET Dilution Buffer (PV3189, InVitrogen) at concentration of 0.4 ug/ml as stock solution, and then 2-fold serial diluted. Addition of 1 mM ATP initiated the reaction, and the reaction is incubated for […] at room temperature. 10 μL of the Tb-antibody (from InVitrogen)+EDTA (from InVitrogen) solution prepared was added to each well of the assay plate and mix briefly, and incubated for 30 min. The signal is monitored by using M5 microplate reader (Ex=332 nm, Em=488 nm and 518 nm). Each compound is tested in duplicate wells. EGFR without compound is used as control. Staurosporine (available from Sigma) is used as positive control compound. Inhibition was calculated as percentage of the EGFR activity (without compound)."}, "NCI-N87 cells": {"tested_on": "NCI-N87 cells", "test": "Anti-proliferation assay of NCI-N87 cells (CCK-8)", "format": "cell-based", "conditions": "Homo sapiens, 72h", "method": "The anti-proliferative assays were performed in triplicates. 3000 cell/well of N87 cells were seeded in 96-well plate, and the cells were incubated for 24h at 37° C. to allow adherence. For the cell proliferation assay, N87 cells were cultured in full cell culture medium containing 0.3% v/v DMSO. A serials concentration of the tested compound (concentration range: 30 uM to 0.16 nM, 5-fold dilution) were added to the 96-welt plate. The incubation was continued for 72h. The culture medium was then removed, and the cell viability was measured by using CCK-8 cell proliferation kit as described in manual provided by the manufacturer. The log of the fractional growth inhibition was plotted against the log of the drug concentration, and the IC50 values were interpolated from the resulting linear regression curve fit. The IC50 value measured for Compound NT113 is <100 nM."}, "NCI-N87 xenograft": {"tested_on": "NCI-N87 xenograft", "test": "In vivo efficacy in NCI-N87 xenograft mouse model", "conditions": "for RTV T/C / tumor growth inhibition: day-7 after treatment", "method": "NCI-N87 cell line was purchased from ATCC (American Type Culture Collection) and was cultured in RPMI1640+10% FBS+1% P/S antibiotics.\nMale Balb/c nude mice, 6-8 week, 18±2 g (supplier: Shanghai SLAC Laboratory Animal Co. Ltd.) were used for the experiment. The purchased mice were adapted to the environment for 7 days before use, and were housed at 22-25° C. with humidity 40-70%, and light cycle with fluorescent light for 12-hour light (8:00-20:00) 12-hour dark. The mice have free access to food and water.\nThe cancer cells (NCI-N87) were implanted subcutaneous into the nude mice (right flank) with 5.0×10^6 cells in 0.1 ml PBS (50 mice). When the tumor size reaches a volume of 200 (150-200) mm^3, the tumor-bearing nude mice were randomly assigned into groups (10 mice/group), one group was served as vehicle, one group was administrated with Lapatinib ditosylate monohydrate (80 mg/kg, free base of Lapatinib, not salt, p.o. […]). The other two groups were administrated with NT113 (also referred to as KID 113) ((15 and 30 mg/kg, p.o.q.d, respectively). The administration period lasted for 4 weeks.\nThe mice were monitored twice daily for appearance and behavior, and for signs of morbidity and/or mortality. The tumor volume was measured twice a week, and the body weight was measured immediately before measuring the tumor volume throughout the whole study.\nAt end of the experiment (compound administration for four weeks), all the tumor-bearing mice were sacrificed by cervical dislocation under deep anesthesia. The tumor mass was resected, and weighed.\nTumor sizes were measured twice weekly in two dimensions using a caliper, and the volume was expressed in mm^3 using the formula: V=½×a×b^2 where a and b are the long and short diameters of the tumor, respectively. The tumor mass was weighed at the end of the experiment after harvested.\nV=½×a×b^2 (a, h is maximum and minimum diameters respectively).\nRTV (Relative Tumor Volume)=Vt/Vo • Vo is the tumor volume when the test article is initial administrated • Vt is the tumor volume of every measurement day after test article administration\nT/C (%)=TRTV/CRTV×100% • TRTV: RTV of test article-treatment group; CRTV: RTV of control group Inhibition rate (%)=(average tumor volume of control group average cancer volume of test article treatment group)/average tumor volume of control group×100%\nThe tumor-bearing mice were treated for 4 weeks with different doses of KU (15 mg/kg, 30 mg/kg, […]), qd) and Lapatinib KUA-1, 80 mg/kg, p.o., bid, 7 days/week. At the day-7 after treatment, the RTV TIC KU113 (15 mg/kg, 30 mg/kg) groups were <30%, and the tumor growth inhibition was >70%. but the RTV TIC was 31% and tumor growth inhibition rat was 69% in the lapatinib group. The same result was observed as well when it comes to the tumor weight. On day 28 after treatment, all the tumor-bearing mice were sacrificed, and all the tumor masses were harvested to weigh."}}, "note": "Where two headings read alike, the source gives them in different places."}
{"smiles": "CN(C)C/C=C/C(=O)Nc1cc2c(Nc3ccc(F)c(Cl)c3)ncnc2cc1C#C[C@@H]1[C@H]2COC[C@@H]12", "note": "[Example 4, (E)-N-(4-(3-chloro-4-fluorophenylamino)-7-(2-((1R,5S,6s)-3-oxa-bicyclo[3.1.0]hexan-6-yl)ethynyl)quinazolin-6-yl)-4-(dimethylamino)but-2-enamide]", "values": [{"measurement": "IC50", "setting": "EGFR kinase", "value": "< 100", "unit": "nM"}, {"measurement": "IC50", "setting": "NCI-N87 cells; read-out: Cell Proliferation Inhibition IC50 (nM) NCI-N87", "value": "< 100", "unit": "nM"}, {"measurement": "IC50", "setting": "NCI-N87 cells; read-out: IC50 NCI-N87 anti-proliferation", "value": "< 100", "unit": "nM"}, {"measurement": "tolerability (side effect)", "setting": "NCI-N87 xenograft; 15 mg/kg, po, qd", "value": "without predefined side effect"}, {"measurement": "body weight after dosing was stopped", "setting": "NCI-N87 xenograft; 30 mg/kg group, by day 28", "value": "recovered to normal"}, {"measurement": "body weight effect", "setting": "NCI-N87 xenograft; 30 mg/kg, p.o., qd, 7 days/week", "value": "body weight loss"}, {"measurement": "RTV T/C", "setting": "NCI-N87 xenograft; 15 mg/kg po qd", "value": "< 30", "unit": "%"}, {"measurement": "tumor growth inhibition", "setting": "NCI-N87 xenograft; 15 mg/kg po qd", "value": "> 70", "unit": "%"}, {"measurement": "RTV T/C", "setting": "NCI-N87 xenograft; 30 mg/kg po qd", "value": "< 30", "unit": "%"}, {"measurement": "tumor growth inhibition", "setting": "NCI-N87 xenograft; 30 mg/kg po qd", "value": "> 70", "unit": "%"}]}
